Test results from ChEMBL document CHEMBL5357004 (J Nat Prod, 2024).
Calls of active or inactive are those of the source. The calls are words filed in the database; no cut-off is given here.

Experiments:
[1] = Cytotoxicity against C57BL6/J mouse brown Preadipocyte assessed as decrease in cell viability > 8 uM measured for 24 hrs by trypan blue staining based hemocytometer analysis; format: toxicity
[2] = Cytotoxicity against C57BL6/J mouse brown Preadipocyte assessed as decrease in cell viability at 4 uM measured for 24 hrs by trypan blue staining based hemocytometer analysis; format: toxicity
Adipocyte [3] = test: Potentiation of CL-316243-stimulated mouse Brown adipocyte activation assessed as increase in CPT1a mRNA expression at 4 uM pretreated with compound for 9 hr followed by CL-316243 induction and measured after 8 hrs by qRT-PCR analysis; format: functional, cell-based; settings: time 17.0 hrs
[4] = Effect on Pparg1 mRNA level in mouse Adipocyte by qRT-PCR analysis; format: functional
Adipocyte [5] = test: Effect on C/EBPdelta mRNA level in mouse brown Adipocyte by qRT-PCR analysis; format: functional, cell-based
Adipocyte [6] = test: Potentiation of CL-316243-stimulated mouse Brown adipocyte activation assessed as increase in CPT2 mRNA expression at 4 uM pretreated with compound for 9 hr followed by CL-316243 induction and measured after 8 hrs by qRT-PCR analysis; format: functional, cell-based; settings: time 17.0 hrs
Adipocyte [7] = test: Potentiation of CL-316243-stimulated mouse Brown adipocyte activation assessed as increase in ELVOL6 mRNA expression at 4 uM pretreated with compound for 9 hr followed by CL-316243 induction and measured after 8 hrs by qRT-PCR analysis; format: functional, cell-based; settings: time 17.0 hrs
[8] = Effect on CD36 mRNA level in mouse Adipocyte by qRT-PCR analysis; format: functional
Adipocyte [9] = test: Downregulation of C/EBPdelta protein expression level in mouse brown Adipocyte by Western blot analysis; format: functional, cell-based
[10] = Effect on CEBPA mRNA level in mouse Adipocyte by qRT-PCR analysis; format: functional
[11] = Inhibition of adipogenic differentiation in C57BL/6J mouse brown Preadipocyte assessed as reduction in neutral lipid content at 4 uM by Oil Red O staining based light microscopy; format: functional
Adipocyte [12] = test: Potentiation of CL-316243-stimulated mouse Brown adipocyte activation assessed as increase in ELOVL3 mRNA expression at 4 uM pretreated with compound for 9 hr followed by CL-316243 induction and measured after 8 hrs by qRT-PCR analysis; format: functional, cell-based; settings: time 17.0 hrs
Adipocyte [13] = test: Downregulation of C/EBPbeta protein expression level in mouse Adipocyte by Western blot analysis; format: functional, cell-based
[14] = Effect on CEBPB mRNA level in mouse Adipocyte by qRT-PCR analysis; format: functional
Adipocyte [15] = test: Downregulation of C/EBPalpha protein expression level in mouse Adipocyte by Western blot analysis; format: functional, cell-based
[16] = Downregulation of C/EBPdelta protein expression level in mouse Adipocyte by Western blot analysis; format: functional
Adipocyte [17] = test: Potentiation of CL-316243-stimulated mouse Brown adipocyte activation assessed as increase in Ucp1 expression at 4 uM pretreated with compound for 9 hr followed by CL-316243 induction and measured after 8 hrs by qRT-PCR analysis; format: functional, cell-based; settings: time 17.0 hrs
[18] = Effect on Pparg2 mRNA level in mouse Adipocyte by qRT-PCR analysis; format: functional
Adipocyte [19] = test: Potentiation of CL-316243-stimulated mouse Brown adipocyte activation assessed as increase in CTP1B mRNA expression at 4 uM pretreated with compound for 9 hr followed by CL-316243 induction and measured after 8 hrs by qRT-PCR analysis; format: functional, cell-based; settings: time 17.0 hrs
Adipocyte [20] = test: Potentiation of CL-316243-stimulated mouse Brown adipocyte activation assessed as increase in PPARA mRNA expression at 4 uM pretreated with compound for 9 hr followed by CL-316243 induction and measured after 8 hrs by qRT-PCR analysis; format: functional, cell-based; settings: time 17.0 hrs
Adipocyte [21] = test: Potentiation of CL-316243-stimulated mouse Brown adipocyte activation assessed as increase in FGF21 mRNA expression at 4 uM pretreated with compound for 9 hr followed by CL-316243 induction and measured after 8 hrs by qRT-PCR analysis; format: functional, cell-based; settings: time 17.0 hrs
Adipocyte [22] = test: Potentiation of CL-316243-stimulated mouse Brown adipocyte activation assessed as increase in CIDEA mRNA expression at 4 uM pretreated with compound for 9 hr followed by CL-316243 induction and measured after 8 hrs by qRT-PCR analysis; format: functional, cell-based; settings: time 17.0 hrs

With COc1c(C)c(O)c2c(=O)c(OC)c(-c3ccc(O)cc3)oc2c1OC the Activity [1] was “Non-Toxic”, the Activity [2] was “Non-Toxic” and the Activity (Adipocyte [3]) was “inactive”. The Activity [4] was 50.3%, the Activity (Adipocyte [5]) was “Active” and the Activity (Adipocyte [6]) was “inactive”. The Activity (Adipocyte [7]) was “inactive”, the Activity [8] was 24.18% and the Activity (Adipocyte [9]) was “Active”. The Activity [10] was 50.3%, the inhibition at 4 µM [11] was 54.8% and the Activity (Adipocyte [12]) was “inactive”. The Activity (Adipocyte [13]) was “inactive”, the Activity [14] was 50.3% and the Activity (Adipocyte [15]) was “inactive”. For the same molecule, the Activity [16] was 31.93%, the Activity (Adipocyte [17]) was “inactive” and the Activity [18] was 50.3%. For the same molecule, the Activity (Adipocyte [19]) was “inactive”, the Activity (Adipocyte [20]) was “inactive” and the Activity (Adipocyte [21]) was “inactive”. The Activity (Adipocyte [22]) was “inactive”.
